Measurements taken from paper PMC10238325, “Optimization of antimicrobial peptides for the application against biocorrosive bacteria” (Applied Microbiology and Biotechnology, 2023).
In brackets after ≈: the same amount, converted by molar mass. Where a SMILES comes first, the peptide text is derived from it. Where no end group is shown, it is not given here.

Experiments:
[1] = system: Desulfovibrio desulfuricans DSM 642; format: cell-based; details: DSM 642, 48 h
Procedure: (§1) The following SRB were used: Desulfovibrio vulgaris DSM 644, Desulfovibrio desulfuricans DSM 642, and Desulfovibrio indonesiensis DSM 15121. The Postgate medium (DSMZ medium 63) with a modification of 0.004 g/L FeSO4 × 7 H2O and 0.3 g/L Tri-sodium citrate (and 2% NaCl for D. indonesiensis) was flushed with nitrogen gas. Each culture was subcultured 1:100. Cultivation occurred for 48 h, 37 °C (30 °C for D. desulfuricans), without shaking. The following SOB was used: Thiomonas intermedia DSM 18155. Therefore, the Thiomonas medium (DSMZ medium 35a) was used, subcultured 1:100, and cultivated for 48 h, 30 °C, 115 rpm. Escherichia coli K12 ATCC 25404 was grown in LB Lennox medium (Carl Roth GmbH & Co.KG Karlsruhe, Germany) for 18 h, 37 °C, 115 rpm and diluted 1:1000 in Mueller-Hinton broth (Carl Roth GmbH & Co.KG Karlsruhe, Germany). Incubation during the assay took place for 24 h, 37 °C, 115 rpm.
(§2) A stock solution of 1 mg/mL in milliQ from the respective peptide and a concentration range of 1000–1.95 μg/mL was prepared by serial 2-fold dilution. 20 μL of each test substance (n=3) per well was added to a 96-well microtiter plate (polystyrene). 100 μL of each bacteria suspension (start OD600: 0.001) was added to the well with test substance, as well as 120 μL as growth control (n=35) and 120 μL medium (n=1) as sterile control to an empty well. To avoid evaporation, all microtiter plates were cultivated in air-tight containers during the incubation period. Microtiter plates for testing on SRB were prepared in the anaerobic chamber (Coy Laboratory Products Inc. Grass Lake, United States of America) and cultivated in air-tight containers including Oxoid anaerobic bag (Thermo Fisher Scientific Inc. Waltham, United States of America) to ensure anaerobic conditions. The microtiter plates were measured before and after incubation at OD600, and the growth inhibition in % was determined with the following equation:1 inhibition%=ΔOD600testsubstance/ΔOD600growthcontrole∙100%
(§3) The minimum inhibitory concentration (MIC) describes the lowest concentration where no bacterial growth could be detected. Besides the MIC100, where a complete reduction of bacterial growth could be detected, other partial inhibitions such as MIC95 or MIC50, where 95% or 50% growth inhibition occurs, can be specified.

[2] = system: Desulfovibrio vulgaris DSM 644; format: cell-based; details: for MIC95 D. vulgaris: 95% growth inhibition, 96-well microdilution, 2-fold series 1000–1.95 μg/mL, n=3, OD600, modified Postgate medium, anaerobic
Procedure: as §1, §2, §3

[3] = system: Thiomonas intermedia DSM 18155; format: cell-based; details: DSM 18155, 48 h
Procedure: as §1, §2, §3

[4] = system: Desulfovibrio indonesiensis DSM 15121; assay: MIC assay against D. indonesiensis; format: cell-based; details: 95% growth inhibition; 96-well microdilution, n=3, OD600; modified Postgate medium with 2% NaCl, anaerobic, 48 h, 37 °C, without shaking
Procedure: as §1, §2, §3

in vitro = in vitro ADME, Desulfovibrio vulgaris; details: for remaining at 48 h, 1 mg/mL / remaining at 168 h, 1 mg/mL: cells or culture medium
Procedure: The analysis of the peptides was performed on a RP-HPLC (Agilent 1100, detector: diode array detector G1315A, column: Phenomenex®-Aeris™ 2.6 μm Peptide XB-C18 100 Å,150 × 2.1 mm), and ESI-LC-MS was performed (Knauer, detector: Surveyor MSQ, column: Eurospher II 100-2 C18A, 100 × 2 mm, 2 μm). The gradient was performed with a flow rate of 0.25 mL/min from 99% of mobile phase A (0.1% TFA in milliQ) over 15 min to 95% of mobile phase B (0.1% TFA in acetonitrile), kept at 95% with B for 2 min, and equilibrated at 99% with A for another 3 min. 20 μL (RP-HPLC) and 10 μL (ESI-LC-MS) peptide solution (250 μg/mL in milliQ) was injected.
For the stability tests, a bacterial suspension (7 days old) of D. vulgaris was centrifuged at 5000 rpm for 10 min. 1 mg/mL peptide solution was prepared within the supernatant and incubated at 37 °C for 7 days. The respective aliquots (t=0, 48, 72, 168 h) were mixed 1:10 with quenching solution (milliQ + 0.08% trifluoroacetic acid) and analyzed in triplicates according to the protocol described above for RP-HPLC. In addition, after incubation in the supernatant (168 h), the peptide (P3.2.) was analyzed for activity using the MIC assay.

SRB = details: ref Greene et al. [2006]; cited from earlier work
Source text: The current strategy to control microbial-influenced corrosion is based on biocides, which lead to fast resistance, requiring higher and higher concentrations to eradicate the bacteria. Alternative treatment strategies are based on additives like D-amino acids or chelates to biocides to reduce the required biocide concentration by a synergistic effect. However, these additives are not inhibitory on their own, and although a reduced biocide concentration is required, the presence of biocide is still necessary (Jia et al. [2017]; Wen et al. [2012]; Wen et al. [2009]). In this paper, a new method ...

Compound | MIC50 D. desulfuricans [1] [µg/mL] | MIC95 D. vulgaris ([2]; 48 h, 37 °C, without shaking) [µg/mL] | MIC95 D. indonesiensis [4] [µg/mL] | remaining at 48 h, 1 mg/mL (in vitro) [%] | remaining at 168 h, 1 mg/mL (in vitro) [%] | also measured
CC[C@H](C)[C@H](NC(=O)[C@H](CCCNC(=N)N)NC(=O)[C@H](CS)NC(=O)[C@H](CC(C)C)NC(=O)[C@@H](N)CCCNC(=N)N)C(=O)N[C@H](C(=O)N[C@H](C(=O)N[C@H](C(=O)N[C@@H](CCCNC(=N)N)C(=O)N[C@H](C(=O)N[C@@H](CS)C(=O)N[C@@H](CCCNC(=N)N)C(=O)O)C(C)C)[C@@H](C)CC)C(C)C)C(C)C [Bactenecin] (H-RLCRIVVIRVCR-OH; N-terminus and C-terminus assumed) | 250 (≈ 168 µM) | 62.5 (≈ 42.1 µM) | 31.25 (≈ 21 µM) | 41 | 17 | MIC50 T. intermedia [3]: 62.5 µg/mL (≈ 42.1 µM); stability in supernatant (in words) (in vitro): significant stability loss after only 48 h
CC(C)C[C@H](NC(=O)[C@H](CC(C)C)NC(=O)[C@H](CCCCN)NC(=O)[C@H](CCCCN)NC(=O)[C@H](CC(C)C)NC(=O)[C@H](Cc1c[nH]c2ccccc12)NC(=O)[C@H](CCCCN)NC(=O)[C@H](Cc1c[nH]c2ccccc12)NC(=O)[C@H](CC(C)C)NC(=O)[C@H](CCCCN)NC(=O)[C@H](CCCCN)NC(=O)CCCCCN)C(N)=O [Peptide P3.2.] (HELM PEPTIDE1{[NCCCCCC(=O)[*:2]].K.K.L.W.K.W.L.K.K.L.L.[am]}$$$$V2.0) | 250 (≈ 157 µM) | 15.63 (≈ 9.79 µM) | 125 (≈ 78.3 µM) | 99 | 85 | MIC50 D. vulgaris after incubation in supernatant ([2]; DSM 644, 168 h): 31.25 µg/mL (≈ 19.6 µM); MIC95 D. vulgaris after incubation in supernatant ([2]; peptide (1 mg/mL) first incubated 168 h in D. vulgaris supernatant, then dilution series, 48 h, 37 °C, without shaking): 62.5 µg/mL (≈ 39.2 µM)
CC(C)C[C@H](NC(=O)[C@H](CC(C)C)NC(=O)[C@H](CCCCN)NC(=O)[C@H](CCCCN)NC(=O)[C@H](CC(C)C)NC(=O)[C@H](Cc1c[nH]c2ccccc12)NC(=O)[C@H](CCCCN)NC(=O)[C@H](Cc1c[nH]c2ccccc12)NC(=O)[C@H](CC(C)C)NC(=O)[C@H](CCCCN)NC(=O)[C@H](CCCCN)NC(=O)CCCCCCCN)C(N)=O [Peptide P3.3.] (HELM PEPTIDE1{[NCCCCCCCC(=O)[*:2]].K.K.L.W.K.W.L.K.K.L.L.[am]}$$$$V2.0) | 250 (≈ 154 µM) |  |  |  |  | 
CCCCCCCCCC(=O)N[C@@H](CCCCN)C(=O)N[C@@H](CCCCN)C(=O)N[C@@H](CC(C)C)C(=O)N[C@@H](Cc1c[nH]c2ccccc12)C(=O)N[C@@H](CCCCN)C(=O)N[C@@H](Cc1c[nH]c2ccccc12)C(=O)N[C@@H](CC(C)C)C(=O)N[C@@H](CCCCN)C(=O)N[C@@H](CCCCN)C(=O)N[C@@H](CC(C)C)C(=O)N[C@@H](CC(C)C)C(N)=O [Peptide P3.4.] (HELM PEPTIDE1{[CCCCCCCCCC(=O)[*:2]].K.K.L.W.K.W.L.K.K.L.L.[am]}$$$$V2.0) | 125 (≈ 76.3 µM) | 31.25 (≈ 19.1 µM) | 31.25 (≈ 19.1 µM) |  |  | 
CCCCCCCCCCCC(=O)N[C@@H](CCCCN)C(=O)N[C@@H](CCCCN)C(=O)N[C@@H](CC(C)C)C(=O)N[C@@H](Cc1c[nH]c2ccccc12)C(=O)N[C@@H](CCCCN)C(=O)N[C@@H](Cc1c[nH]c2ccccc12)C(=O)N[C@@H](CC(C)C)C(=O)N[C@@H](CCCCN)C(=O)N[C@@H](CCCCN)C(=O)N[C@@H](CC(C)C)C(=O)N[C@@H](CC(C)C)C(N)=O [Peptide P3.5.] (HELM PEPTIDE1{[CCCCCCCCCCCC(=O)[*:2]].K.K.L.W.K.W.L.K.K.L.L.[am]}$$$$V2.0) | 62.5 (≈ 37.5 µM) | 62.5 (≈ 37.5 µM) | 31.25 (≈ 18.8 µM) |  |  | 
CCCCCCCCCCCCCC(=O)N[C@@H](CCCCN)C(=O)N[C@@H](CCCCN)C(=O)N[C@@H](CC(C)C)C(=O)N[C@@H](Cc1c[nH]c2ccccc12)C(=O)N[C@@H](CCCCN)C(=O)N[C@@H](Cc1c[nH]c2ccccc12)C(=O)N[C@@H](CC(C)C)C(=O)N[C@@H](CCCCN)C(=O)N[C@@H](CCCCN)C(=O)N[C@@H](CC(C)C)C(=O)N[C@@H](CC(C)C)C(N)=O [Peptide P3.6.] (HELM PEPTIDE1{[CCCCCCCCCCCCCC(=O)[*:2]].K.K.L.W.K.W.L.K.K.L.L.[am]}$$$$V2.0) | 125 (≈ 73.8 µM) | 125 (≈ 73.8 µM) | 62.5 (≈ 36.9 µM) |  |  | 
O=S(=O)([O-])[O-].OC[P+](CO)(CO)CO.OC[P+](CO)(CO)CO [THPS, tetrakis(hydroxymethyl)phosphonium sulfate] |  |  |  |  |  | concentration required to inhibit SRB growth (SRB): 40 µg/mL
Ac-KKLWKWLKKLL-NH2 [Peptide P3.1.] | 500 | 31.25 | 125 |  |  | 
FFGKVLKLIRKIF [DASamP1] | 500 |  |  | 99 |  | MIC50 T. intermedia [3]: 125 µg/mL
FKKFWKWFRRF [Peptide S6L3-33] | 500 |  |  | 93 | 85 | MIC50 T. intermedia [3]: 62.5 µg/mL
KKLLKWLKKLL [Peptide L5K5W] | >1000 |  |  | 91 | 80 | MIC50 T. intermedia [3]: 500 µg/mL
KKLWKWLKKLL [Peptide L5K5W-W4I6] | >1000 |  |  | 94 | 86 | 
KKLWKWLKKLL-NH2 [Peptide P2.1.] | 250 |  |  |  |  | 
RRLWRWLRRLL [Peptide P1.1.] | 1000 |  |  |  |  | 
